{"source": "patent US10093642B2", "about": "“Multitarget hedgehog pathway inhibitors and uses thereof” (UNIVERSITA' DEGLI STUDI DI SIENA, priority 2013, dated 2018)", "key": {"[1]": {"test_system": "ASZ001 BCC allografts", "experiment": "ASZ001 BCC allograft in NOD/SCID mice", "type": "in vivo", "conditions": "100 μmol/Kg, 18 days", "description": "FIG. 18. Glabrescione B inhibits Gli1-dependent BCC tumor growth in vivo. (ASZ001 BCC allografts). (A) Change of tumor volume during Glabrescione B (GlaB) or vehicle (CTR) treatment period (18 days). […] (C) qRT-PCR of Gli1 and Ptch1 mRNA. Shown is the mean±SD of tumor (n=6) for each treatment. *P<0.05 vs CTR.\nTherefore, to verify the Glabrescione B efficacy to inhibit Hh-dependent tumor cell growth in vivo, we turned to an allograft model of MB cells. Spontaneous Medulloblastomas from Ptch1^+/− mice were isolated, minced, pipetted to obtain a single-cell suspension and grafted s.c. at the posterior flank of female BALB/c nude mice (nu/nu) (Charles River Laboratories, Lecco, Italy). Tumors were grown until a median size of ˜100 mm^3. Animals were randomly divided into two groups (n=6) and treated with solvent only (2-hydroxypropyl-β-cyclodextrin:ethanol, 3:1) or Glabrescione B in solvent (75 μmol/Kg) for 18 days (2-hydroxypropyl-β-cyclodextrin was purchased from Sigma Aldrich, St. Louis, Mo., USA). 2×10^6 ASZ001 BCC cells were resuspended in an equal volume of 154CF medium and Matrigel (BD Biosciences, Heidelberg, Germany) and injected s.c. at the posterior flank of female NOD/SCID mice (Charles River Laboratories, Lecco, Italy), as previously described (Eberl et al, 2012). […] Tumor volumes change was calculated by the formula length×width×0.5×(length+width) (Lauth et al, 2007). […]"}, "[2]": {"test_system": "Hh pathway (Gli-RE reporter, activated by SMO agonist SAG)", "experiment": "Gli-luciferase reporter assay in SAG-treated NIH 3T3 Shh-light II cells", "type": "cell-based", "procedure": "FIG. 4. Effect of active natural compounds identified by the pharmacophore screening in a luciferase assay, where the gene reporter was Gli1 and the pathway was activated by the SAG molecule, a potent SMO agonist. Natural compounds were tested at three different concentrations (1, 10 and 20 μM) and their activity was compared to that of cyclopamine, the natural compound reference inhibitor of the Hedgehog pathway, which was tested at the same doses (1, 10 and 20 μM). On both graphs the activity of cyclopamine is reported as reference standard. (A) cyclopamine, 2,4,5,3′,4′-penta-Ome chalcone and Auriculasin; (B) cyclopamine, Martinoside, Jaceidin, 2,4,5,3′,4′-penta-Ome chalcone, 3,4-di-MDO-2′,4′,5′-tri-Ome dihydrochalcone.\nFIG. 6. Dose-response curve of Glabrescione B in SAG (Smoothened Agonist, 200 nM) treated NIH 3T3 Shh-light II (Shh-LII) cells. Treatment time was 48 h and normalization was against Renilla luciferase. Shown is the fold increase of Hh reporter activity compared with cells not treated with SAG.\nFIG. 19. Effect of derivatives NT8, NT9, NT10, NT11, NT12, NT13, NT14 and NT15 on the Hedgehog pathway, measured at 5 μM dose in a luciferase assay where the gene reporter was Gli1 and the pathway was activated by the SAG molecule, a potent SMO agonist. […]\nTo investigate the inhibitory properties of Glabrescione B on Hh signaling, the inventors examined its effects in NIH 3T3 Shh-light II (Shh-LII) cells stably incorporating an Hh-responsive (Gli-RE) reporter, in which induction of the pathway occurs following treatment with the SMO agonist SAG. […] The IC50 in this assay was 0.8 μM.\nThe ability of Glabrescione B to suppress Hh signaling was assessed in a cellular context of Hh pathway induction. To this end, the antagonist properties of Glabrescione B were determined in Shh Light II (ATCC, cat. # CRL-2795), a murine fibroblast NIH 3T3 cell line. These cells, stably incorporating the Gli-luc reporter and the pRL-TK Renilla reniformis (as described in Taipale, Chen et al. 2000) are a standard tool used to assay Hh pathway activity. The cells that reached the confluence were treated for 48 h with the SMO agonist SAG (200 nM, Alexis, cat. #ALX-270-426-M001) in absence or in presence of Glabrescione B at the amount indicated in FIG. 6. […] Control cells were treated with only DMSO (0.5%, SERVA, cat. #39757.02) Determination of luciferase activities was carried out using the Dual-Luciferase assay according to manufacturer's instructions (Dual-Luciferase® Reporter assay system; Promega, cat. # E1980). All presented data are firefly luciferase activity reported to the Renilla control activity. […] IC50 of 0.8 μM, represents the concentration of Glabrescione B necessary to have fifty percent of inhibition.\nEvaluation of the Hh inhibitory activity of these molecules at 5 μM was preliminarily conducted in vitro on Shh Light II cells (see example 2)."}, "[3]": {"test_system": "MEF-SuFu−/− cells", "experiment": "Gli1 mRNA (quantitative RT-PCR) in MEF-SuFu−/− cells", "type": "cell-based, mouse", "conditions": "different concentrations, 48 h", "procedure": "FIG. 9. Confluent MEF-SuFu^−/− cells were treated with DMSO (0.5%, vehicle), GANT61 (10 μM, as positive control) or different concentrations of Glabrescione B for 48 h. Gli1 mRNA levels were determined by quantitative RT-PCR, normalizing to HPRT expression. Error bars indicate SD.\nTo analyze the antagonist properties of Glabrescione B under more physiological conditions, the inventors used MEF-Ptch^−/− cells, embryo fibroblasts derived from Ptch^−/− mouse, in which the activation of Hh signaling is consequence of Ptch1 deletion. Since Patched acts as upstream repressor of SMO, inhibition of the Hedgehog pathway from Patched is prevented and the Hedgehog pathway is constitutively activated in this cell lines, which turned out to be a reliable cellular model for studying the effect of Hedgehog inhibitors. […]\nTo further elucidate the concept of downstream pathway inhibition by Glabrescione B, the inventors used MEF-SuFu^−/− cells (a kind gift by R. Toftgard, Karolinska Institutet, Sweden, Svärd, J. et al, 2006), in which the downstream Hh pathway activation is consequence of SuFu genetic ablation. Confluent cells were treated with Glabrescione B at the amount indicated in the FIG. 9 and Gli1 expression levels were determined by quantitative RT-PCR as previously described. […]"}}, "note": "Entries after “also recorded” stand apart in the source; their conditions may differ."}
{"compound": "COc1cc(OC)c2c(=O)c(-c3ccc(OCC=C(C)C)c(OCC=C(C)C)c3)coc2c1", "note": "[Glabrescione B, 3-(3′,4′-bis(3-methylbut-2-enyloxy)phenyl)-5,7-dimethoxy-4H-chromen-4-one]", "values": [{"measurement": "Gli1 mRNA levels in tumors", "setting": "[1]", "result": "significant reduction"}, {"measurement": "tumor growth", "setting": "[1]", "result": "significant reduction of tumor growth"}, {"measurement": "effect on Hh pathway in luciferase assay", "setting": "[2]; Gli1 gene reporter, pathway activated by SAG, cyclopamine as reference", "result": "inhibit the Hh pathway; also recorded: most potent lead"}, {"measurement": "IC50", "setting": "[2]; Mus musculus, SAG 200 nM, 48 h, normalized to Renilla, read-out: IC50 of luciferase reporter activity (Hh signaling)", "result": 800, "unit": "nM"}, {"measurement": "inhibition at 5 µM", "setting": "[2]; Mus musculus, at 5 μM, highly active class", "result": "> 50", "unit": "%"}, {"measurement": "Gli1 expression levels (quantitative RT-PCR)", "setting": "[3]", "result": "significant reduction of the high expression levels of Gli1"}]}
